Assay results taken from PMC6150245 (Molecules : A Journal of Synthetic Chemistry and Natural …, 2017).
Converted amounts (≈) assume the structure as drawn. Bridge positions count the residues as written; N and C are the ends. Peptide text beside a SMILES is read from it. I, II: the chains in the order shown.

Experiments:
S. aureus ATCC25923 = test: MIC, microdilution in MH broth (initial screening); assay type: cell-based, Staphylococcus aureus; conditions: 24 h, 37 °C, resazurin, triplicate
Procedure: The minimum inhibitory concentrations (MIC) were determined following the Clinical and Laboratory Standards Institute (CLSI) recommendations. Antibacterial and antifungal activity tests were performed using the microdilution method. For initial screening, peptides were tested against C. albicans ATCC18804, E. coli ATCC25922, and S. aureus ATCC25923. Briefly, bacterial cells in MH broth (80 μL aliquots containing 1.5 × 10^7 CFU) were incubated with synthetic peptides (serial dilution from 512 to 1 μM) dissolved in Milli-Q water. After incubation for 24 h at 37 °C, the microtiter plates were analyzed visually by addition of resazurin. For the antifungal assays, the culture medium was RPMI 1640 buffered with L-glutamine (pH 7.2), 0.165 M morpholinepropanesulfonic acid (MOPS), and 2% glucose. Cell suspensions (final concentration of 1 × 10^3–2.5 × 10^3 CFU/mL) were inoculated on a microdilution plate previously prepared with serially diluted synthetic peptides (128–1 μM). The plates were incubated for 48 h at 37 °C. Each assay was performed in triplicates. Additionally, amphotericin B and fluconazole were used as the control drugs. MIC was defined as the lowest concentration of peptide at which no growth was detected.

S. aureus SA90 = assay type: cell-based, Staphylococcus aureus
Procedure: (§1) After confirming antibacterial activity, the peptides were tested against gram-positive and gram-negative multidrug-resistant bacteria, including strains of clinical origin. The peptides, p-BthTX-I, des-Lys^12/(p-BthTX-I)2, and Lys^13-(p-BthTX-I)2 were serially diluted (512–1 μM) in cation-adjusted BBL MH II broth (CAMHB; Becton, Dickson and Co., Sparks, MD, USA) as described by CLSI. Bacteria at 5.0 × 10^5 CFU/mL were added to the media and incubated for 24 h at 37 °C. […] Assays were performed in duplicates, and sterile broth was used as the negative control. To determine the minimal bactericidal concentration (MBC), 100 µL from each well of the MIC assay plates that inhibited bacterial growth were sub-cultured onto MH agar (MHA) plates. […] If the ratio of MBC/MIC was >4, the activity of the peptide was considered bacteriostatic, as described previously.

E. faecium HSJRP8 = assay type: cell-based, Enterococcus faecium; conditions: for MIC: E. faecium HSJRP8 (daptomycin resistant), CAMHB, 24 h, 37 °C, duplicate; for MBC: E. faecium HSJRP8, sub-culture on MH agar, 99.9% death
Procedure: as §1

E. faecium VRE16 = assay type: cell-based, Enterococcus faecium; conditions: for MIC: E. faecium VRE16 (vancomycin resistant), CAMHB, 24 h, 37 °C, duplicate; for MBC: E. faecium VRE16, sub-culture on MH agar, 99.9% death
Procedure: as §1

K. pneumoniae ATCC700603 = assay type: cell-based, Klebsiella pneumoniae
Procedure: as §1

E. coli ATCC35218 = assay type: cell-based, Escherichia coli; conditions: for MIC: E. coli ATCC35218, CAMHB, 24 h, 37 °C, duplicate; for MBC: E. coli ATCC35218, sub-culture on MH agar, 99.9% death
Procedure: as §1

E. coli CA4 = assay type: cell-based, Escherichia coli; conditions: for MIC: E. coli CA4 (commensal), CAMHB, 24 h, 37 °C, duplicate; for MBC: E. coli CA4, sub-culture on MH agar, 99.9% death
Procedure: as §1

## CC(C)C[C@H](NC(=O)[C@H](Cc1c[nH]cn1)NC(=O)[C@H](Cc1ccc(O)cc1)NC(=O)[C@H](CCCNC(=N)N)NC(=O)[C@H](Cc1ccc(O)cc1)NC(=O)[C@H](CCCCN)NC(=O)[C@@H](N)CCCCN)C(=O)N[C@@H](CCCCN)C(=O)N1CCC[C@H]1C(=O)N[C@@H](Cc1ccccc1)C(=O)N[C@@H](CSSC[C@H](NC(=O)[C@H](Cc1ccccc1)NC(=O)[C@@H]1CCCN1C(=O)[C@H](CCCCN)NC(=O)[C@H](CC(C)C)NC(=O)[C@H](Cc1c[nH]cn1)NC(=O)[C@H](Cc1ccc(O)cc1)NC(=O)[C@H](CCCNC(=N)N)NC(=O)[C@H](Cc1ccc(O)cc1)NC(=O)[C@H](CCCCN)NC(=O)[C@@H](N)CCCCN)C(=O)N[C@@H](CCCCN)C(=O)N[C@@H](CCCCN)C(=O)O)C(=O)N[C@@H](CCCCN)C(=O)N[C@@H](CCCCN)C(=O)O [(p-BthTX-I)2]
S. aureus ATCC25923
  MIC: 64 µM (≈ 222 µg/mL)
S. aureus SA90; S. aureus SA90 (MRSA), CAMHB, 24 h, 37 °C
  MIC: 128 µM (≈ 445 µg/mL)
S. aureus SA90; S. aureus SA90, sub-culture on MH agar, 99.9% death
  MBC: 256 µM (≈ 890 µg/mL)
E. faecium HSJRP8
  MIC: 8 µM (≈ 27.8 µg/mL)
  MBC: >512 µM
E. faecium VRE16
  MIC: 32 µM (≈ 111 µg/mL)
  MBC: >512 µM
K. pneumoniae ATCC700603; K. pneumoniae ATCC700603 (SHV-18), CAMHB, 24 h, 37 °C
  MIC: 64 µM (≈ 222 µg/mL)
K. pneumoniae ATCC700603; K. pneumoniae ATCC700603, sub-culture on MH agar, 99.9% death
  MBC: 64 µM (≈ 222 µg/mL)
E. coli ATCC35218
  MIC: 512 µM (≈ 1780 µg/mL)
  MBC: 512 µM (≈ 1780 µg/mL)
E. coli CA4
  MIC: 256 µM (≈ 890 µg/mL)
  MBC: 512 µM (≈ 1780 µg/mL)

## CC(C)C[C@H](NC(=O)[C@H](Cc1c[nH]cn1)NC(=O)[C@H](Cc1ccc(O)cc1)NC(=O)[C@H](CCCNC(=N)N)NC(=O)[C@H](Cc1ccc(O)cc1)NC(=O)[C@H](CCCCN)NC(=O)[C@@H](N)CCCCN)C(=O)N[C@@H](CCCCN)C(=O)N1CCC[C@H]1C(=O)N[C@@H](Cc1ccccc1)C(=O)N[C@@H](CSSC[C@H](NC(=O)[C@H](Cc1ccccc1)NC(=O)[C@@H]1CCCN1C(=O)[C@H](CCCCN)NC(=O)[C@H](CC(C)C)NC(=O)[C@H](Cc1c[nH]cn1)NC(=O)[C@H](Cc1ccc(O)cc1)NC(=O)[C@H](CCCNC(=N)N)NC(=O)[C@H](Cc1ccc(O)cc1)NC(=O)[C@H](CCCCN)NC(=O)[C@@H](N)CCCCN)C(=O)O)C(=O)O [des-Lys^12/Lys^13-(p-BthTX-I)2] (I: H-KKYRYHLKPFC-OH / II: H-KKYRYHLKPFC-OH; disulfide I:11-II:11)
S. aureus ATCC25923
  MIC: 128 µM (≈ 379 µg/mL)
E. faecium HSJRP8
  MIC: 8 µM (≈ 23.7 µg/mL)
  MBC: 32 µM (≈ 94.8 µg/mL)
E. faecium VRE16
  MIC: 16 µM (≈ 47.4 µg/mL)
  MBC: 64 µM (≈ 190 µg/mL)
E. coli ATCC35218
  MIC: 64 µM (≈ 190 µg/mL)
  MBC: 256 µM (≈ 759 µg/mL)
E. coli CA4
  MIC: 64 µM (≈ 190 µg/mL)
  MBC: 128 µM (≈ 379 µg/mL)
